The values that follow come from patent US20190008920A1, “OPHTHALMIC COMPOSITIONS AND METHODS OF USE” (Ocugen, Inc., priority 2017, published 2019).

The conditions of data set [1]: brimonidine tartrate + cyclosporine nanoemulsion formulation. Here is the method:
The partitioning of active pharmaceutical ingredients in oil and aqueous phases of these exemplary nanoemulsion formulations were determined using RP-HPLC methods. […] In nanoemulsion formulation, oil and aqueous phase were separated using ultrafiltration unit by centrifugation process. Quantity of APIs in these oil and aqueous phase was quantified using HPLC method.

For data set [2] the following is noted: ophthalmic solution 5.0%, administered twice daily; cited from earlier work.

Turning to `Brc1c(NC2=NCCN2)ccc2nccnc12` [brimonidine, 5-Bromo-N-(4,5-dihydro-1H-imidazol-2-yl) quinoxalin-6-amine], in data set [1] (aqueous phase), the “fraction of API partitioned in aqueous phase” value is around 70%. In addition, the “fraction of API partitioned in oil phase” value in data set [1] (oil phase) is around 30%.
Take `CS(=O)(=O)c1cccc(C[C@H](NC(=O)c2c(Cl)cc3c(c2Cl)CCN(C(=O)c2ccc4ccoc4c2)C3)C(=O)O)c1` [Lifitegrast, N-{[2-(1-Benzofuran-6-ylcarbonyl)-5,7-dichloro-1,2,3,4-tetrahydro-6-isoquinolinyl]carbonyl}-3-(methylsulfonyl)-L-phenylalanine]: the “symptoms of ocular discomfort and eye dryness compared with placebo” value in data set [2] is “improve symptoms of ocular discomfort and eye dryness”.
